# Results from patent US20260258051A1, “Camptothecin Compound, Preparation Method Therefor and Use Thereof” (SICHUAN KELUN-BIOTECH BIOPHARMACEUTICAL CO., LTD., priority 2022, published 2026).
# Like-named read-outs stand apart in the source and are kept apart here.
# Legend:
# [1] = system: HT29 cells; assay: Inhibitory effect on HT29 cell proliferation; type: cell-based; details: Homo sapiens, HT-29; HT29, 72 h incubation, Cell Counting-Lite 2.0
# Experimental: (1) Cell plating: First, tumor cells HT29 were cultured with corresponding culture medium, the cells were digested with trypsin and centrifuged, then the cells were resuspended and counted, and the cells were adjusted to an appropriate concentration for plating.
# (§1) Co-incubation of the compounds of the present invention and tumor cells: 90 μL of cell suspension was added to 96-well plates respectively. After cell adherence, 10 μL of bioactive molecules (compounds of the present invention) diluted with culture medium were added into the wells of the above plates, and incubated for 72 h.
# (§2) In vitro cell viability detection: After the incubation, 50 μL of Cell Counting-Lite™ 2.0 reagent (Vazyme) was added to each well, shaken and mixed well in the dark, and reacted for 10 minutes before testing. Microplate reader (manufacturer: BMG, Model: PHERA Star-FS) was used for reading. The culture wells without cells were used as the background RLU, and the culture wells with cells but no compound were used as the cell control RLU. Cell inhibition rate=1−(sample RLU−background RLU)/(cell control RLU−background RLU)×100%. The half-inhibition concentration (IC50) of compound was calculated by fitting the curve according to the four-parameter model.
# [2] = system: HCC1806 cells; assay: Inhibitory effect on HCC1806 cell proliferation; type: cell-based; details: Homo sapiens; HCC1806, 72 h incubation, Cell Counting-Lite 2.0
# Experimental: (1) Cell plating: First, tumor cells HCC1806 were cultured with corresponding culture medium, the cells were digested with trypsin and centrifuged, then the cells were resuspended and counted, and the cells were adjusted to an appropriate concentration for plating.
# as §1, §2
# [3] = system: NCI-H358 cells; assay: Inhibitory effect on NCI-H358 cell proliferation; type: cell-based; details: Homo sapiens; NCI-H358, 72 h incubation, Cell Counting-Lite 2.0
# Experimental: (1) Cell plating: First, tumor cells NCI-H358 were cultured with corresponding culture medium, the cells were digested with trypsin and centrifuged, then the cells were resuspended and counted, and the cells were adjusted to an appropriate concentration for plating.
# as §1, §2
# [4] = system: NCI-N87 cells; assay: Inhibitory effect on NCI-N87 cell proliferation; type: cell-based; details: Homo sapiens, read-out: IC50 (nM), inhibitory activity on NCI-N87 cell proliferation
# Experimental: (1) Cell plating: First, tumor cells NCI-N87 were cultured with corresponding culture medium, the cells were digested with trypsin and centrifuged, then the cells were resuspended and counted, and the cells were adjusted to an appropriate concentration for plating.
# as §1, §2
# [5] = system: MDA-MB-231 cells; assay: Inhibitory effect on MDA-MB-231 cell proliferation; type: cell-based; details: Homo sapiens; MDA-MB-231, 72 h incubation, Cell Counting-Lite 2.0
# Experimental: (1) Cell plating: First, tumor cells MDA-MB-231 were cultured with corresponding culture medium, the cells were digested with trypsin and centrifuged, then the cells were resuspended and counted, and the cells were adjusted to an appropriate concentration for plating.
# as §1, §2
# [6] = system: Jeko-1 cells; assay: Inhibitory effect on Jeko-1 cell proliferation; type: cell-based; details: Homo sapiens; Jeko-1, 72 h incubation, Cell Counting-Lite 2.0
# Experimental: (1) Cell plating: First, tumor cells Jeko-1 were cultured with corresponding culture medium, the cells were resuspended and counted, and finally the cells were adjusted to an appropriate concentration for plating.
# as §1, §2
# [7] = system: MDA-MB-453 cells; assay: Inhibitory effect on MDA-MB-453 cell proliferation; type: cell-based; details: Homo sapiens; MDA-MB-453, 72 h incubation, Cell Counting-Lite 2.0
# Experimental: (1) Cell plating: First, tumor cells MDA-MB-453 were cultured with corresponding culture medium, the cells were digested with trypsin and centrifuged, then the cells were resuspended and counted, and the cells were adjusted to an appropriate concentration for plating.
# as §1, §2
# [8] = Permeability test in MDCK cell model; type: in vitro ADME; details: dog; for efflux ratio at 120 min, 2 μM: pH 7.4, 2.00 μM, Papp(B→A)/Papp(A→B), absence of P-gp inhibitor, read-out: Efflux ratio (ERa)
# Experimental: (§3) The MDCK cell model was used to evaluate the permeability of the compounds, the LC-MS/MS method was used to determine the concentration of the substance to be tested, and the apparent permeability coefficient (Papp) and efflux ratio were calculated [Efflux ratio=Papp(B→A)/Papp(A→B)].
# (§4) Complete culture medium: 10% fetal bovine serum and 1% penicillin/streptomycin were added to MEM culture medium.
# (§5) Digestive solution: 0.05% trypsin-EDTA.
# (§6) HBSS buffer: HBSS containing Ca^2+, Mg^2+.
# (§7) Permeating solution: HBSS containing 10 mM Hepes, 4% BSA, pH 7.4.
# (§8) Compound stock solution: a certain amount of the compound to be tested was weighed and formulated with DMSO to prepare a 10 mM stock solution.
# (§9) MDCK cells (26th generation) in the logarithmic growth phase were digested and dispersed evenly with 0.05% trypsin-EDTA, and then inoculated into the Transwell chamber at 3*10^5 cells/cm^2, with 200 μL on the A side and 1000 μL on the B side. After inoculation, the medium was changed once every day and the culturing was carried out for 3 to 4 days.
# (§10) The cell culture medium was discarded by pipetting, then washing was carried out three times with the permeating solution. 200 μL of permeating solution was added to A side and 1000 μL of permeating solution was added to B side. A voltage resistance meter was used to measure the cell transmembrane resistance (TEER). After the TEER value of the cells was measured, the permeating solution on both sides was discarded by pipetting, and the solution was added. After 120 minutes, 150 μL of samples were taken from A side and B side, respectively, and frozen at −80° C. before testing. Then, 10 μg/ml Fluorescent Yellow was added to A side. After incubation for 30 minutes, 100 μL of solution at B side was pipetted and added into a 96-well white plate. The fluorescence value was measured at the wavelengths of Ex=485 nm and Em=530 nm using a microplate reader, and the permeance was calculated (which was less than 1%).
# (§11) 80 μL of the compound to be tested was taken, added to 320 μL of acetonitrile solution containing internal standard (30 ng/mL Tolbutamide), vortexed, and centrifuged for 10 min (4000 rpm, 4° C.), and the supernatant was taken for LC-MS/MS analysis.
# (§12) Excel 2013 was used to calculate Papp values and Papp ratio of B side→A side to A side→B side, and the recovery rates of each Control Compound and the compound to be tested were calculated.
# (§13) Apparent permeability coefficient (Papp) of compound was calculated according to the following formula:
# (§14) C0 was the initial concentration (μM) of the drug to be tested at the donor, (dCr/dt)×Vr was the rate (μM/s) at which the drug to be tested appeared at the receiver, Vr was the solution volume (mL) at the receiver, and A was the surface area (cm^2) of polycarbonate membrane.
# (§15) Evaluation criteria: Low permeability: Papp≤0.5 (×10^−6 cm/s) • Medium permeability: 0.5<Papp<2.5 (×10^−6 cm/s) • High permeability: Papp≥2.5 (×10^−6 cm/s)
# (§16) Efflux ratio (ER) was calculated according to Papp:
# (§17) [formula] • wherein, Papp(B→A) was the apparent permeability coefficient of the drug to be tested from the BL (baso-lateral) end to the AP (apical) end, and Papp (A→B) was the apparent permeability coefficient of the drug to be tested from the AP end to the BL end.
# (§18) • Probably being an efflux transporter substrate (Probably): ERa≥2 and ERa/ERi>2 • Likely being an efflux transporter substrate (Likely): ERa≥2 • Unlikely or impossibly being an efflux transporter substrate (Poor or non): ERa<2 • wherein, ERi and ERa were the efflux ratios of the compound to be tested in the presence and absence of P-gp inhibitor, respectively.
# [9] = system: MDCK cells; assay: Permeability test in MDCK cell model; type: in vitro ADME
# Experimental: as §3, §4, §5, §6, §7, §8, §9, §10, §11, §12, §13, §14, §15, §16, §17, §18
# [10] = pH 7.4, concentration 2.00 μM, 120 minutes, A to B, read-out: Papp A to B
# [11] = pH 7.4, concentration 2.00 μM, 120 minutes, B to A, read-out: Papp B to A
# [12] = NCI-N87, 72 h incubation, Cell Counting-Lite 2.0
Structure (SMILES),IC50 [1] [nM],IC50 [2] [nM],IC50 [3] [nM],"IC50 ([4]; NCI-N87, 72 h) [nM]",IC50 [5] [nM],IC50 [6] [nM],IC50 [7] [nM],"efflux ratio at 120 min, 2 μM [8]","Papp A→B at 120 min, 2 μM [8, 10] [×10⁻⁶ cm/s]","Papp B→A at 120 min, 2 μM [8, 11] [×10⁻⁶ cm/s]",Efflux transporter substrate evaluation from efflux ratio ([9]; 2.00 μM),Permeability class according to the Papp(A→B) results ([9]; 2.00 μM),"IC50 [4, 12] [nM]","Papp A→B at 120 min, 2 μM ([8]; pH 7.4) [×10⁻⁶ cm/s]","Papp B→A at 120 min, 2 μM ([8]; pH 7.4) [×10⁻⁶ cm/s]",Permeability class according to the Papp(A→B) results [9]
"CC[C@@]1(O)C(=O)OCc2c1cc1n(c2=O)Cc2c-1nc1cc(F)c(C)c3c1c2[C@@H](NC(N)=O)CC3 [Compound 7-2, 1-((1S,9S)-9-ethyl-5-fluoro-9-hydroxy-4-methyl-10,13-dioxy-2,3,9,10,13,15-hexahydro-1H,12H-benzo[de]pyrano[3′,4′:6,7]indolizino[1,2-b]quinolin-1-yl)urea]",22.8,18.6,287,80.8,30.6,2.17,203,–,–,–,–,–,–,–,–,–
CC[C@@]1(O)C(=O)OCc2c1cc1n(c2=O)Cc2c-1nc1cc(F)c(Cl)cc1c2CNC(=O)C(O)C1CC1 (some centres unmarked) [Compound 2-4],5.99,1.08,53.4,5.72,–,0.34,95.6,–,–,–,–,–,–,–,–,–
"CC[C@@]1(O)C(=O)OCc2c1cc1n(c2=O)Cc2c-1nc1cc(F)c(C)c3c1c2[C@@H](NC(=O)CO)CC3 [Control Compound 3, reference compound]",–,–,–,–,–,–,–,15.2,0.31,4.65,could be efflux transporter substrates,low-permeability,–,–,–,–
"CC[C@@]1(O)C(=O)OCc2c1cc1n(c2=O)Cc2c-1nc1cc(F)c(C)cc1c2CNC(=O)CO [Control Compound 2, reference compound]",–,–,–,–,–,–,–,28,0.01,0.4,could be efflux transporter substrates,low-permeability,–,–,–,–
"C=CC(O)C(=O)NCc1c2c(nc3cc(F)c(Cl)cc13)-c1cc3c(c(=O)n1C2)COC(=O)[C@]3(O)CC (stereo partly drawn) [Compound 2-22, N—(((S)-9-chloro-4-ethyl-8-fluoro-4-hydroxy-3,14-dioxo-3,4, 12,14-tetrahydro-1H-pyrano[3′,4′:6,7]indolizino[1,2-b]quinolin-11-yl)methyl)-2-hydroxy-3-enamine]",10.2,6.09,–,–,–,1.11,–,2.24,–,–,could be efflux transporter substrates,–,7.27,0.71,1.59,medium-permeability
"CC[C@@]1(O)C(=O)OCc2c1cc1n(c2=O)Cc2c-1nc1cc(F)c(Cl)cc1c2CNC(=O)C(O)C(F)(F)F (stereo partly drawn) [Compound 2-19, N—(((S)-9-chloro-4-ethyl-8-fluoro-4-hydroxy-3,14-dioxo-3,4, 12,14-tetrahydro-1H-pyrano[3′,4′:6,7]indolizino[1,2-b]quinolin-11-yl)methyl)-3,3,3-trifluoro-2-hydroxypropionamide]",2.93,0.78,12.7,–,–,1.09,–,1.48,–,–,not efflux transporter substrates or were weak efflux transporter substrates,–,5.69,0.5,0.73,low-permeability
"CC[C@@]1(O)C(=O)OCc2c1cc1n(c2=O)Cc2c-1nc1cc(F)c(C)c3c1c2[C@@H](NS(N)(=O)=O)CC3 [Compound 7-1, (1S,9S)-1-sulfamoylamido-9-ethyl-5-fluoro-9-hydroxy-4-methyl-1,2,3,9,12,15-hexahydro-10H,13H-benzo[de]pyranol[3′,4′:6,7]indolizino[1,2-b]quinolin-10,13-dione]",10.1,3.67,268,31.3,31,4.07,50.2,–,–,–,–,–,–,–,–,–
"CC[C@@]1(O)C(=O)OCc2c1cc1n(c2=O)Cc2c-1nc1cc(F)c(Cl)cc1c2CN [Compound 1-1, (S)-11-(aminomethyl)-9-chloro-4-ethyl-8-fluoro-4-hydroxy-1,12-dihydro-14H-pyrano[3′,4′:6,7]indolizino[1,2-b]quinolin-3,14(4H)-dione]",1.07,1.23,25.7,8.59,3.55,–,291,1.41,2.59,3.65,not efflux transporter substrates or were weak efflux transporter substrates,high-permeability,–,–,–,–
"CC[C@@]1(O)C(=O)OCc2c1cc1n(c2=O)Cc2c-1nc1cc(F)c(C)cc1c2CN [Control Compound 1, reference compound]",–,–,–,–,–,–,–,2.06,1.31,2.71,could be efflux transporter substrates,medium-permeability,–,–,–,–
